# Results reported in US9963461B2, “Phillygenin ibuprofen ester, preparation method therefor, and application thereof” (priority 2014, dated 2018).
# Marks after values point to notes of the source that are not given here.
# What was measured:
# [1] = test system: Adenovirus (AdV); assay: Impact of the drugs on the virus-induced cytopathy (MTT); assay type: cell-based; details: ADV 100 TCID50, Vero cells, about the maximal non-cytotoxic concentration, 72 hours
# [2] = test system: respiratory syncytial virus (RSV); assay: as above; assay type: cell-based; details: RSV 100 TCID50, Vero cells, about the maximal non-cytotoxic concentration, 72 hours
# [3] = test system: influenza virus; assay type: in vivo, Kunming mice; details: lung suspensions, influenza virus infected mice; 58.5 mg/kg/d, 5 days
# [4] = test system: influenza virus; assay: Impact of the drugs on the virus-induced cytopathy (MTT); assay type: cell-based
# [5] = test system: Coxsackie virus A16 (CoxA16); assay: as above; assay type: cell-based; details: CoxA16 100 TCID50, Vero cells, about the maximal non-cytotoxic concentration, 72 hours
# [6] = test system: Herpes Simplex Virus type I (HSV-1); assay: as above; assay type: cell-based; details: HSV-I 100 TCID50, Vero cells, about the maximal non-cytotoxic concentration, 72 hours
# [7] = test system: Enterovirus EV71; assay: as above; assay type: cell-based; details: EV71 100 TCID50, Vero cells, about the maximal non-cytotoxic concentration, 72 hours
# [8] = test system: parainfluenza virus; assay type: in vivo, Kunming mice; details: lung suspensions, parainfluenza virus infected mice; 58.5 mg/kg/d, 5 days
# [9] = test system: parainfluenza virus; assay: Impact of the drugs on the virus-induced cytopathy (MTT); assay type: cell-based; details: parainfluenza virus 100 TCID50, Vero cells, about the maximal non-cytotoxic concentration, 72 hours
# [10] = test system: coxsackie virus B3 (CVB3); assay: as above; assay type: cell-based; details: CVB3 100 TCID50, Vero cells, about the maximal non-cytotoxic concentration, 72 hours
# [11] = test system: beer yeast induced rat fever; assay: Beer yeast induced rat fever; assay type: in vivo, Wistar rats; details: 100 mg/kg
# Method: Male Wistar rats were selected, weighing 180-200 g. Before the test, WSC-411P portable digital thermometer was used to measure the normal rectal temperature twice (with certain interval for each time), and the average value of the two measurements was taken as the normal body temperature of the rat. Then 70 rats with the body temperature between 36.5° C. and 38° C. were chosen to be randomly divided into 7 groups by weight: the model (0.5% carboxymethylcellulose) group, the 2.5, 5, and 10 mg/kg phillygenin ibuprofen ester groups, the positive drug paracetamol (100 mg/kg) group, the ibuprofen group (i.e. prodrug control group, 300 mg/kg), the phillygenin group (100 mg/kg), with 10 rats for each group. Each group of rats were subjected to back subcutaneous injection with 10% fresh beer yeast suspension of 10 ml/kg to induce heat. After administration of 10% fresh beer yeast suspension for 6.0 h, phillygenin ibuprofen ester and paracetamol were both subjected to intragastric administration, and the model group was intragastrically administrated with equal volume of 0.5% carboxymethylcellulose. Rectal temperature was measured after 1 h, 2 h, 3 h and 4 h of the administration respectively. Changes in the body temperature were observed and difference between the groups was compared by inter-group t test processing through antipyretic percentage.
# [12] = test system: rabbit fever induced by typhoid and paratyphoid vaccine; assay: Rabbit fever induced by typhoid and paratyphoid vaccine; assay type: in vivo, Japanese white rabbits; details: 50 mg/kg
# Method: Japanese male big-ear white rabbits, weighing 1.5-2.0 kg. Before the test, WSC-411P portable digital thermometer was used to measure the normal rectal temperature twice (with certain interval for each time), and the average value was taken as the normal body temperature. Then 48 Japanese big-ear white rabbits with body temperature of 38-39.6° C. were selected and randomly divided into 8 groups by weight, namely: the blank control (normal saline) group, the model control (0.5% carboxymethylcellulose) group, the ibuprofen group (300 mg/kg), the phillygenin group (10 mg/kg), the 1.25, 2.5, and 5 mg/kg phillygenin ibuprofen ester groups and the positive drug paracetamol (50 mg/kg) group. The rabbits were fixed in a fixator. The blank control group was intravenously injected with normal saline of 1 ml/kg via the ear margin; The model control group and the drug groups were intravenously injected with typhoid and paratyphoid vaccines of 0.8 ml/kg via the ear margin. When the body temperature rise of the rabbits was greater than 1° C. (requiring about 1-1.5 h, which was restricted to 1 h in this test), the blank control group and the model group were administered intragastrically with 0.5% carboxymethycellulose of 1 ml/kg, and the drug groups were administered intragastrically with phillygenin ibuprofen ester and paracetamol. […]
# [13] = test system: mice pain induced by acetic acid; assay: Analgesic test, mice writhing induced by acetic acid; assay type: in vivo, Kunming mice; details: 200 mg/kg intragastric; within 15 min after 0.7% acetic acid
# Method: 72 Kunming mice were randomly divided into 6 groups, with 12 mice for each group. (1) the blank normal control group (i.e. saline group, […]); (2) positive drug aspirin group (200 mg/kg); (3) ibuprofen group (300 mg/kg); (4) high dose group of phillygenin ibuprofen ester (300 mg/kg); (5) medium dose group of phillygenin ibuprofen ester (150 mg/kg); (6) low dose group of phillygenin ibuprofen ester (75 mg/kg). […] The number of mice writhings within 15 min after administration was recorded. The number of writhings was taken as the evaluation index to evaluate the analgesic effect.
# [14] = test system: rat toe swelling induced by carrageenan; assay: Rat toe swelling induced by carrageenan; assay type: in vivo, Wistar rats; details: 200 mg/kg sublingual intravenous injection
# Method: The test groups were administered by sublingual intravenous injection. Before the test, capillary magnification measurement method was used to measure the normal volume of the right hind foot of the rats in each group. To avoid errors, the measurement location was fixed and the operation was made by one person both before and after the administration. The average value of the two measurements was taken as the normal volume of the right hind foot of the rats before administration. […] The difference between the groups was compared by inter-group t test processing through the difference percentage (swelling ratio) of the paw volume before and after the induced rat inflammation.
# [15] = test system: sweat secretion of rat paw part; assay: Sweat secretion of rat paw part (coloring method); assay type: in vivo, Wistar rats; details: 35.0 mg/kg subcutaneous; for Animal number of sweat points of level +: + = sweat area below about 10%; for Animal number of sweat points of level ++: ++ = sweat area about 11-40%; for Animal number of sweat points of level +++: +++ = sweat area about 41-70%; for Animal number of sweat points of level ++++: ++++ = sweat area over 71%; for Animal number of sweat points of level −: − = no sweat point
# From the text: This test was designed to observe the change of sweat secretion based on the mechanism that sweat gland is distributed on the rat paw pads, and iodine and starch can have purple reaction when encountered with sweat. In the test, 350 Wistar rats were selected, with equal male and female number, weighing 120-150 g. […] The rats were placed in a self-made rat fixation bag, with the double hind limbs exposed. The dirts on the right paw was gently scrubbed clean with the cotton swab dipped with anhydrous ethanol. Besides that subcutaneous injection was used for the pilocarpine solution, intragastric administration was used for all the other groups. […] When the test was complete, statistical process was carried out according to the rank-sum test with two-sample comparison, in order to compare the difference between the groups.
# [16] = test system: sweat gland epithelial cells at the rat toe part; assay: Sweat secretion of rat paw part (tissue morphology observation method); assay type: in vivo, Wistar rats; details: rat toe part; 35.0 mg/kg subcutaneous
# From the text: This test was based on the mechanism that when rat sweat gland is excited, in addition to sweat secretion increase, the morphology of sweat gland epithelial cell is also changed. The number increase and expansion of empty cells of the sweat gland epithelial cells can be seen under the optical microscope. Such enlarged vacuole presents mitochondrial in sweat gland epithelial cells swelling, rupture, fusion and secretory vesicle enlargement under the electron microscope, and through the morphological observation of the sweat gland epithelial cell at the rat paw part, the secretory activity of the sweat gland can be known. In the test, 70 Wistar rats were selected, with equal male and female number, weighing 120-160 g. […] Besides that subcutaneous injection was used for the pilocarpine solution, intragastric administration was used for all the other groups.
# [17] = time after administration (min) 30
# [18] = time after administration (min) 60
# [19] = time after administration (min) 90
# [20] = time after administration (min) 120
# [21] = time after administration (min) 180
# [22] = after coating B liquid for 1 minute
# [23] = after coating B liquid for 5 minutes
# [24] = after coating B liquid for 10 minutes
# [25] = after coating B liquid for 15 minutes (Table 2-4)
# [26] = after coating B liquid for 15 minutes (Table 2-5)
smiles,measurement,setting,value
"NC(=O)c1ncn([C@@H]2O[C@H](CO)[C@@H](O)[C@H]2O)n1 [Ribavirin, ribavirin]",antiviral effective rate (ER %),[1],0.43%
same,antiviral effective rate (ER %),[2],50.08* %
same,Hemagglutination titer (InX),[3],21.91 ± 1.050
same,Hemagglutination titer Inhibitive rate (%),[3],32.39%
same,antiviral effective rate (ER %),[4],57.49* %
same,antiviral effective rate (ER %),[5],0.70%
same,antiviral effective rate (ER %),[6],60.92* %
same,antiviral effective rate (ER %),[7],4.25%
same,Hemagglutination titer (InX),[8],23.22 ± 1.091
same,Hemagglutination titer Inhibitive rate (%),[8],24.53%
same,antiviral effective rate (ER %),[9],81.56** %
same,antiviral effective rate (ER %),[10],13.44%
CC(=O)Nc1ccc(O)cc1 [Paracetamol],Body temperature (° C.),[11]; 1 h after administration,38.66 ± 0.58 °C
same,antipyretic percentage (%),[11]; 1 h after administration,−2.07 ± 0.54 %
same,Body temperature (° C.),[11]; 2 h after administration,38.19 ± 0.59 °C
same,antipyretic percentage (%),[11]; 2 h after administration,−3.27 ± 0.77 %
same,Body temperature (° C.),[11]; 3 h after administration,37.98 ± 0.19 °C
same,antipyretic percentage (%),[11]; 3 h after administration,−3.80 ± 1.43 %
same,Body temperature (° C.),[11]; 4 h after administration,37.84 ± 0.32 °C
same,antipyretic percentage (%),[11]; 4 h after administration,−4.15 ± 1.59 %
same,Body temperature (° C.),[12]; [17],40.53 ± 0.68 °C
same,antipyretic percentage (%),[12]; [17],−1.14 ± 0.59 %
same,Body temperature (° C.),[12]; [18],40.10 ± 0.48 °C
same,antipyretic percentage (%),[12]; [18],−2.18 ± 0.16 %
same,Body temperature (° C.),[12]; [19],39.83 ± 0.57 °C
same,antipyretic percentage (%),[12]; [19],−2.83 ± 0.16 %
same,Body temperature (° C.),[12]; [20],39.72 ± 0.54 °C
same,antipyretic percentage (%),[12]; [20],−3.11 ± 0.29 %
same,Body temperature (° C.),[12]; [21],39.61 ± 0.48 °C
same,antipyretic percentage (%),[12]; [21],−3.38 ± 0.25 %
CC(=O)Oc1ccccc1C(=O)O [Aspirin],Writhing times,[13],5.0*
same,Swelling ratio (%),[14]; 30 min,0.120 ± 0.138 %
same,Swelling ratio (%),[14]; 60 min,0.168 ± 0.172 %
same,Swelling ratio (%),[14]; 120 min,0.215 ± 0.178 %
same,Swelling ratio (%),[14]; 180 min,0.343 ± 0.337 %
same,Swelling ratio (%),[14]; 240 min,0.470 ± 0.289 %
same,Swelling ratio (%),[14]; 300 min,0.690 ± 0.369%
same,Swelling ratio (%),[14]; 360 min,0.525 ± 0.338 %
CC[C@@H]1C(=O)OC[C@@H]1Cc1cncn1C [Pilocarpine],Animal number of sweat points of level +,[15]; [22],1
same,Animal number of sweat points of level ++,[15]; [22],3
same,Animal number of sweat points of level +++,[15]; [22],1
same,Animal number of sweat points of level ++++,[15]; [22],5
same,Animal number of sweat points of level −,[15]; [22],0
same,Animal number of sweat points of level +,[15]; [23],1
same,Animal number of sweat points of level ++,[15]; [23],2
same,Animal number of sweat points of level +++,[15]; [23],1
same,Animal number of sweat points of level ++++,[15]; [23],6
same,Animal number of sweat points of level −,[15]; [23],0
same,Animal number of sweat points of level +,[15]; [24],1
same,Animal number of sweat points of level ++,[15]; [24],2
same,Animal number of sweat points of level +++,[15]; [24],1
same,Animal number of sweat points of level ++++,[15]; [24],6
same,Animal number of sweat points of level −,[15]; [24],0
same,Animal number of sweat points of level +,[15]; [25],0
same,Animal number of sweat points of level ++,[15]; [25],2
same,Animal number of sweat points of level +++,[15]; [25],1
same,Animal number of sweat points of level ++++,[15]; [25],6
same,Animal number of sweat points of level −,[15]; [25],0
same,Animal number of sweat points of level +,[15]; [26],0
same,Animal number of sweat points of level ++,[15]; [26],2
same,Animal number of sweat points of level +++,[15]; [26],1
same,Animal number of sweat points of level ++++,[15]; [26],6
same,Animal number of sweat points of level −,[15]; [26],0
same,Number of sweat glands of vacuole,[16],57
same,Void fraction (%),[16],27.40*** %
